This note sets out measurements from US10851073B2, “Protein tyrosine phosphatase inhibitors and methods of use thereof” (Calico Life Sciences LLC, priority 2019, dated 2020).

The subject of the assay is B16F10 mouse melanoma cells. Briefly: B16F10 IFNγ-induced cellular growth inhibition assay. Type of assay: cell-based. The settings on record: B16-F10, with 0.5 ng/mL IFNγ. As for the experimental part: Example 229: B16F10 IFNγ-Induced Cellular Growth Inhibition Assay B16F10 mouse melanoma cells (ATCC Cat^# CRL-6475, Manassas, Va.) were seeded at a density of 500 cells per well in a 384-well clear bottom plate (Corning Cat^#3765, Corning, N.Y.) in 25 μL total volume of DMEM+10% FBS (Sigma Cat^# D6429 and Sigma Cat^# F4135, St. Louis, Mo.). Cells were allowed to adhere overnight at 37° C.+5% CO2. On the following day, 12.5 μL of mouse IFNγ (RD systems Cat^#485-MI/CF, Minneapolis, Minn.) was added to half of the plate (columns 13-24) at a concentration of 2 ng/mL for a final assay concentration of 0.5 ng/mL of IFNγ. Media only (12.5 μL of DMEM+10% FBS) was added to the remainder of the plate (columns 1-12). Next, compounds resuspended in DMSO (Sigma Cat^# D2650) at 100 mM were diluted in semi-log dilutions in DMSO ranging from 100 mM to 0.001 mM and DMSO only controls were included. The compound/DMSO dilutions were further diluted 1:250 in DMEM+10% FBS, and 12.5 μL of these dilutions were added in triplicates to cells of both treatment arms (with and without IFNγ). Final compound concentrations ranged from 100 μM to 0.001 μM with a final DMSO concentration of 0.1%. Compounds were only dosed in the inner 240 wells, avoiding the outer 2-well perimeter of the plate to minim/ze edge effects. Finally, the plate was loaded into an IncuCyte® S3 Live Cell Analysis System (Essen Bioscience-Sartorius, Ann Arbor, Mich.) maintained in a 37° C.+5% CO2 incubator, allowed to equilibrate for 2 hours, and imaged every 6 hours for 5 days. Confluence over time for compound dilutions in the presence and absence of IFNγ was measured. Growth inhibition values were obtained when the “DMSO/no IFNγ” control reached confluence >95%. At these time points, for each compound the percent growth inhibition at every compound dose level was calculated relative to the “DMSO/with IFNγ” control and used to determine the IC50.

The mark [1] stands for this setting: read-out: B16F10 Growth Inhibition IC50.

Read-outs that look alike come from different tables or passages of the source.

With `O=C1CN(c2c(O)cc3c(c2F)CN(CCCCCC(F)(F)F)CC3)S(=O)(=O)N1` [Compound 161, 5-[8-fluoro-6-hydroxy-2-(6,6,6-trifluorohexyl)-1,2,3,4-tetrahydroisoquinolin-7-yl]-1λ^6,2,5-thiadiazolidine-1,1,3-trione], for the setting “read-out: B16F10 GI IC50”, the IC50 is 10 to 100 µM.
For the compound `O=C1CN(c2c(O)cc3c(c2F)CN(CCCN2CCOCC2)CC3)S(=O)(=O)N1` [Compound 229, 5-{8-fluoro-6-hydroxy-2-[3-(morpholin-4-yl)propyl]-1,2,3,4-tetrahydroisoquinolin-7-yl}-1λ^6,2,5-thiadiazolidine-1,1,3-trione], the IC50 (read-out: B16F10 GI IC50) was 1 to 10 µM.
In the case of `CCn1nc(C)c(CCN2CCc3cc(O)c(N4CC(=O)NS4(=O)=O)c(F)c3C2)c1C` [Compound 276, 5-{2-[2-(1-ethyl-3,5-dimethyl-1H-pyrazol-4-yl)ethyl]-8-fluoro-6-hydroxy-1,2,3,4-tetrahydroisoquinolin-7-yl}-1λ^6,2,5-thiadiazolidine-1,1,3-trione], the half-inhibitory concentration (IC50) (read-out: B16F10 GI IC50) was 1 to 10 µM.
In the case of `O=C1CN(c2c(O)cc3c(c2F)CC(NCc2ccccn2)CC3)S(=O)(=O)N1` (stereo not drawn) [Compound 155, 5-(1-fluoro-3-hydroxy-7-{[(pyridin-2-yl)methyl]amino}-5,6,7,8-tetrahydronaphthalen-2-yl)-1λ^6,2,5-thiadiazolidine-1,1,3-trione], the IC50 (read-out: B16F10 GI IC50) was 10 to 100 µM.
With `O=C1CN(c2c(O)cc3c(c2F)C[C@H](NCCC2CC(F)(F)C2)CC3)S(=O)(=O)N1` [Compound 202, 5-[(7R)-7-{[2-(3,3-difluorocyclobutyl)ethyl]amino}-1-fluoro-3-hydroxy-5,6,7,8-tetrahydronaphthalen-2-yl]-1λ^6,2,5-thiadiazolidine-1,1,3-trione], the IC50 (read-out: B16F10 GI IC50) was < 1 µM.
For the compound `CC(C)(C)CCNc1ccc2cc(O)c(N3CC(=O)NS3(=O)=O)c(F)c2c1` [Compound W], under setting [1], the IC50 was 4.1 µM.
Consider `Cc1nn(CC(F)F)c(C)c1CCN1CCc2cc(O)c(N3CC(=O)NS3(=O)=O)c(F)c2C1` [Compound 253, 5-(2-{2-[1-(2,2-difluoroethyl)-3,5-dimethyl-1H-pyrazol-4-yl]ethyl}-8-fluoro-6-hydroxy-1,2,3,4-tetrahydroisoquinolin-7-yl)-1λ^6,2,5-thiadiazolidine-1,1,3-trione], for which, for the setting “read-out: B16F10 GI IC50”, the IC50 lay within 1 to 10 µM.
Regarding `Cn1cc(CCN2CCc3cc(O)c(N4CC(=O)NS4(=O)=O)c(F)c3C2)cn1` [Compound 252, 5-{8-fluoro-6-hydroxy-2-[2-(1-methyl-1H-pyrazol-4-yl)ethyl]-1,2,3,4-tetrahydroisoquinolin-7-yl}-1λ^6,2,5-thiadiazolidine-1,1,3-trione], the IC50 (read-out: B16F10 GI IC50) is 10 to 100 µM.
Take `CC(C)CNC(=O)N1CCc2cc(O)c(N3CC(=O)NS3(=O)=O)c(F)c2C1` [Compound 206, 8-fluoro-6-hydroxy-N-(2-methylpropyl)-7-(1,1,4-trioxo-1λ^6,2,5-thiadiazolidin-2-yl)-3,4-dihydroisoquinoline-2(1H)-carboxamide]: the IC50 (read-out: B16F10 GI IC50) fell in the range of 1 to 10 µM.
Turning to `O=C1CN(c2c(O)cc3c(c2F)CN(C(=O)NCC2CC(F)(F)C2)CC3)S(=O)(=O)N1` [Compound 262, N-[(3,3-difluorocyclobutyl)methyl]-8-fluoro-6-hydroxy-7-(1,1,4-trioxo-1λ^6,2,5-thiadiazolidin-2-yl)-3,4-dihydroisoquinoline-2(1H)-carboxamide], the IC50 (read-out: B16F10 GI IC50) was 10 to 100 µM.
For `CC(C)CCNc1ccc2cc(O)c(N3CC(=O)NS3(=O)=O)c(F)c2c1` [Compound V], the IC50 under setting [1] was 3.2 µM.
In the case of `CC(C)CCNC(=O)N1CCc2cc(O)c(N3CC(=O)NS3(=O)=O)c(F)c2C1` [Compound 205, 8-fluoro-6-hydroxy-N-(3-methylbutyl)-7-(1,1,4-trioxo-1λ^6,2,5-thiadiazolidin-2-yl)-3,4-dihydroisoquinoline-2(1H)-carboxamide], the half-maximal inhibitory concentration (IC50) (read-out: B16F10 GI IC50) was 1 to 10 µM.
For the compound `COCCCN1CCc2cc(O)c(N3CC(=O)NS3(=O)=O)c(F)c2C1` [Compound 217, 5-[8-fluoro-6-hydroxy-2-(3-methoxypropyl)-1,2,3,4-tetrahydroisoquinolin-7-yl]-1λ^6,2,5-thiadiazolidine-1,1,3-trione], the IC50 (read-out: B16F10 GI IC50) lay in the range of 1 to 10 µM.
As to `O=C1CN(c2c(O)cc3c(c2F)CN(CCCC2CCOCC2)CC3)S(=O)(=O)N1` [Compound 196, 5-{8-fluoro-6-hydroxy-2-[3-(oxan-4-yl)propyl]-1,2,3,4-tetrahydroisoquinolin-7-yl}-1λ^6,2,5-thiadiazolidine-1,1,3-trione], the IC50 (read-out: B16F10 GI IC50) lay in the range of 1 to 10 µM.
Still for that read-out and setting: the same measure for `C[C@H](N)CN1CCc2cc(O)c(N3CC(=O)NS3(=O)=O)c(F)c2C1` [Compound 245, 5-{2-[(2S)-2-aminopropyl]-8-fluoro-6-hydroxy-1,2,3,4-tetrahydroisoquinolin-7-yl}-1λ^6,2,5-thiadiazolidine-1,1,3-trione]: 1 to 10 µM; for `Cc1noc(C)c1CN1CCc2cc(O)c(N3CC(=O)NS3(=O)=O)c(F)c2C1` [Compound 208, 5-{2-[(3,5-dimethyl-1,2-oxazol-4-yl)methyl]-8-fluoro-6-hydroxy-1,2,3,4-tetrahydroisoquinolin-7-yl}-1λ^6,2,5-thiadiazolidine-1,1,3-trione]: 10 to 100 µM; for `O=C1CN(c2c(O)cc3c(c2F)CN(CCCCC(F)(F)F)CC3)S(=O)(=O)N1` [Compound 153, 5-[8-fluoro-6-hydroxy-2-(5,5,5-trifluoropentyl)-1,2,3,4-tetrahydroisoquinolin-7-yl]-1λ^6,2,5-thiadiazolidine-1,1,3-trione]: > 100 µM.
As to `N[C@H](CCC1CCCCC1)C(=O)N1CCc2cc(O)c(N3CC(=O)NS3(=O)=O)c(F)c2C1` [Compound 250, 5-{2-[(2R)-2-amino-4-cyclohexylbutanoyl]-8-fluoro-6-hydroxy-1,2,3,4-tetrahydroisoquinolin-7-yl}-1λ^6,2,5-thiadiazolidine-1,1,3-trione], the IC50 (read-out: B16F10 GI IC50) is > 100 µM.
Turning to `CC1(C)CCc2c(cc(O)c(N3CC(=O)NS3(=O)=O)c2F)O1` [Compound 112, 5-(5-fluoro-7-hydroxy-2,2-dimethyl-3,4-dihydro-2H-1-benzopyran-6-yl)-1λ^6,2,5-thiadiazolidine-1,1,3-trione], the IC50 (read-out: B16F10 GI IC50) fell in the range of 10 to 100 µM.
For the compound `Cc1n[nH]c(C)c1CCN1CCc2cc(O)c(N3CC(=O)NS3(=O)=O)c(F)c2C1` [Compound 194, 5-{2-[2-(3,5-dimethyl-1H-pyrazol-4-yl)ethyl]-8-fluoro-6-hydroxy-1,2,3,4-tetrahydroisoquinolin-7-yl}-1λ^6,2,5-thiadiazolidine-1,1,3-trione], the IC50 (read-out: B16F10 GI IC50) lay within 1 to 10 µM.
On to `CC(C)OCCCN1CCc2cc(O)c(N3CC(=O)NS3(=O)=O)c(F)c2C1` [Compound 251, 5-(8-fluoro-6-hydroxy-2-{3-[(propan-2-yl)oxy]propyl}-1,2,3,4-tetrahydroisoquinolin-7-yl)-1λ^6,2,5-thiadiazolidine-1,1,3-trione], for which the IC50 (read-out: B16F10 GI IC50) was 1 to 10 µM.
With `O=C1CN(c2c(O)cc3c(c2F)CCCC3)S(=O)(=O)N1` [Compound 108, 5-(1-fluoro-3-hydroxy-5,6,7,8-tetrahydronaphthalen-2-yl)-1λ^6,2,5-thiadiazolidine-1,1,3-trione], the half-maximal inhibitory concentration (IC50) (read-out: B16F10 GI IC50) was 10 to 100 µM.
Take `O=C1CN(c2c(O)cc3c(c2F)CN(CC[C@H]2C[C@@H](OC(F)(F)F)C2)CC3)S(=O)(=O)N1` [Compound 231, 5-(8-fluoro-6-hydroxy-2-{2-[(1s,3r)-3-(trifluoromethoxy)cyclobutyl]ethyl}-1,2,3,4-tetrahydroisoquinolin-7-yl)-1λ^6,2,5-thiadiazolidine-1,1,3-trione]: the IC50 (read-out: B16F10 GI IC50) is 1 to 10 µM.
Turning to `O=C1CN(c2c(O)cc3c(c2F)CN(CCCC2CCCCC2)CC3)S(=O)(=O)N1` [Compound 286, 5-[2-(3-cyclohexylpropyl)-8-fluoro-6-hydroxy-1,2,3,4-tetrahydroisoquinolin-7-yl]-1λ^6,2,5-thiadiazolidine-1,1,3-trione], the IC50 (read-out: B16F10 GI IC50) was 1 to 10 µM.
On to `O=C1CN(c2c(O)cc3c(c2F)CN(C(=O)NCC2CC2)CC3)S(=O)(=O)N1` [Compound 258, N-(cyclopropylmethyl)-8-fluoro-6-hydroxy-7-(1,1,4-trioxo-1λ^6,2,5-thiadiazolidin-2-yl)-3,4-dihydroisoquinoline-2(1H)-carboxamide], for which the 50% inhibitory concentration (IC50) (read-out: B16F10 GI IC50) lay within 1 to 10 µM.
Turning to `Cc1nn(C(F)F)c(C)c1CCN1CCc2cc(O)c(N3CC(=O)NS3(=O)=O)c(F)c2C1` [Compound 238, 5-(2-{2-[1-(difluoromethyl)-3,5-dimethyl-1H-pyrazol-4-yl]ethyl}-8-fluoro-6-hydroxy-1,2,3,4-tetrahydroisoquinolin-7-yl)-1λ^6,2,5-thiadiazolidine-1,1,3-trione], the IC50 (read-out: B16F10 GI IC50) fell in the range of 1 to 10 µM.
As for `Cc1c(CCN2CCc3cc(O)c(N4CC(=O)NS4(=O)=O)c(F)c3C2)cnn1C` [Compound 257, 5-{2-[2-(1,5-dimethyl-1H-pyrazol-4-yl)ethyl]-8-fluoro-6-hydroxy-1,2,3,4-tetrahydroisoquinolin-7-yl}-1λ^6,2,5-thiadiazolidine-1,1,3-trione], the IC50 (read-out: B16F10 GI IC50) fell in the range of 1 to 10 µM.

What is called IC50 is the point on the concentration scale where inhibition reaches its midpoint.
